This note sets out measurements from publication PMC12775149 (Nature Communications, 2025).

Structures are written as SMILES.

One experiment deals with T1, AtCAT5 (Arabidopsis thaliana, UniProt O64759).
T1 sequence (O64759 1-569): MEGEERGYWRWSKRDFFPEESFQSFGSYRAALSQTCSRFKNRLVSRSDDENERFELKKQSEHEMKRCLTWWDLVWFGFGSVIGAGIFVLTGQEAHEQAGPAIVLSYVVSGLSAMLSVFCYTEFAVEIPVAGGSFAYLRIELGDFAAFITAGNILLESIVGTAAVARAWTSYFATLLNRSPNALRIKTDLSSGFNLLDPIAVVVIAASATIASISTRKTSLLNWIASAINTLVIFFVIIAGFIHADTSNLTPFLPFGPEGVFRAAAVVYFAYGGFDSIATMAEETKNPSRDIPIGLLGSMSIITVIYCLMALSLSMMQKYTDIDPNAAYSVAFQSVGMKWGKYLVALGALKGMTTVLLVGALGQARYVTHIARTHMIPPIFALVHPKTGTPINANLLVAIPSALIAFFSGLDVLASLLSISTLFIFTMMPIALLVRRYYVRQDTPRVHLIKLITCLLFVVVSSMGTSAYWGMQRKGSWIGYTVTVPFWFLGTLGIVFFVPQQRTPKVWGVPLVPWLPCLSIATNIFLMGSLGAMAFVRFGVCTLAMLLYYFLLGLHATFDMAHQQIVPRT
The experiment can be described thus: LC-MS/MS of PPT accumulated in overexpressing M. polymorpha versus Tak-1. The settings on record: whole plants, 100 µM PPT (time course at 1 mM PPT up to 48 h).

A further experiment addresses T2, AtCAT1 (Arabidopsis thaliana, UniProt Q84MA5).
T2 sequence (Q84MA5 2-594): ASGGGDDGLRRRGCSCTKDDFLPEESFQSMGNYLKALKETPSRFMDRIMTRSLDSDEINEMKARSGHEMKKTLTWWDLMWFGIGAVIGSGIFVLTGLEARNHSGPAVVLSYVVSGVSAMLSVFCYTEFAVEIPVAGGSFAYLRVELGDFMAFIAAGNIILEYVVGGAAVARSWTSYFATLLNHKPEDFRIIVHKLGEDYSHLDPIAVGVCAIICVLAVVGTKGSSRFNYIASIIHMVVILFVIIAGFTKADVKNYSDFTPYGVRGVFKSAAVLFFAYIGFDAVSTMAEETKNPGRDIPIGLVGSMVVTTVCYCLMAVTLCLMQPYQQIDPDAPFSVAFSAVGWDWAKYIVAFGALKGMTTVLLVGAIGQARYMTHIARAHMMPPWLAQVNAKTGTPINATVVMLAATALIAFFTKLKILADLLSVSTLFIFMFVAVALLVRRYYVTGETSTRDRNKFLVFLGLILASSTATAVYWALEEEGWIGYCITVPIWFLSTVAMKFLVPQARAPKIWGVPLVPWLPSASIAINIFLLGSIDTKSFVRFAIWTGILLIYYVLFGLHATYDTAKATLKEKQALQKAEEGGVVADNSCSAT
The description is as above. The note with it: whole plants, 100 µM PPT.

Take `CP(=O)(O)CC[C@H](N)C(=O)O` [PPT, L-phosphinothricin]: the PPT accumulation result at AtCAT5 was “Increased PPT contents in both AtCAT1ox and AtCAT5ox lines confirmed the successful mediation”; on AtCAT1, “Increased PPT contents in both AtCAT1ox and AtCAT5ox lines confirmed the successful mediation”.
